Data on 23 compounds can be found in ChEMBL document CHEMBL4177678, “Design, synthesis and in vitro anti-tuberculosis activity of benzo[6,7]cyclohepta[1,2-b]pyridine-1,2,3-triazole derivatives” (Bioorg Med Chem Lett, 2017).

Structures are written as SMILES. Converted amounts (≈) assume the structure as drawn.

One data set concerns Mycobacterium tuberculosis. The data set is described as follows: Antitubercular activity against Mycobacterium tuberculosis H37Rv ATCC 27294 after 28 days by two-fold serial dilution method. To be noted: H37Rv ATCC 27294, 672 h. Format: functional.
In the case of `Cc1nc2c(cc1Cn1cc(-c3ccccn3)nn1)CCCc1ccccc1-2`, the lowest concentration to inhibit growth (MIC) was 12.5 µg/mL (≈ 34 µM).

On to `COc1cccc(-c2cn(Cc3cc4c(nc3C)-c3ccccc3CCC4)nn2)c1`, for which the minimum inhibitory concentration (MIC) is more than 25 µg/mL.

`NNC(=O)c1ccncc1` [ISONIAZID]: the MIC came to 0.1 µg/mL (≈ 0.729 µM).

`CC[C@@H](CO)NCCN[C@@H](CC)CO` [ETHAMBUTOL] showed an MIC of 3.13 µg/mL (≈ 15.3 µM).

`CO[C@H]1/C=C/O[C@@]2(C)Oc3c(C)c(O)c4c(O)c(c(/C=N/N5CCN(C)CC5)c(O)c4c3C2=O)NC(=O)/C(C)=C\C=C\[C@H](C)[C@H](O)[C@@H](C)[C@@H](O)[C@@H](C)[C@H](OC(C)=O)[C@@H]1C` [RIFAMPIN] displayed an MIC of 0.2 µg/mL (≈ 0.243 µM).

Regarding `Cc1nc2c(cc1Cn1cc(-c3cc4ccccc4c4ccccc34)nn1)CCCc1ccccc1-2`, the MIC was more than 25 µg/mL.

Turning to `CCCCCc1ccc(-c2cn(Cc3cc4c(nc3C)-c3cc(C)c(C)cc3CCC4)nn2)cc1`, the MIC is more than 25 µg/mL.

With `CCCCCCc1cn(Cc2cc3c(nc2C)-c2cc(C)c(C)cc2CCC3)nn1`, the MIC was determined as 12.5 µg/mL (≈ 31 µM).

Consider `COc1ccc2cc(-c3cn(Cc4cc5c(nc4C)-c4cc(C)c(C)cc4CCC5)nn3)ccc2c1`, for which the minimum inhibitory concentration (MIC) turned out to be 25 µg/mL (≈ 52.7 µM).

The compound `Cc1cc2c(cc1C)-c1nc(C)c(Cn3cc(-c4ccsc4)nn3)cc1CCC2` displayed an MIC of 12.5 µg/mL (≈ 31.2 µM).

For `Cc1ccc(-c2cn(Cc3cc4c(nc3C)-c3ccccc3CCC4)nn2)cc1`, inhibition of growth (MIC) required 12.5 µg/mL (≈ 32.9 µM).

`Cc1cc2c(cc1C)-c1nc(C)c(Cn3cc(-c4cccnc4)nn3)cc1CCC2` registered an MIC of 6.25 µg/mL (≈ 15.8 µM).

In the case of `Cc1nc2c(cc1Cn1cc(-c3ccsc3)nn1)CCCc1ccccc1-2`, 12.5 µg/mL (≈ 33.6 µM) was the least that counted as inhibitory (MIC).

Consider `COc1cccc(-c2cn(Cc3cc4c(nc3C)-c3cc(C)c(C)cc3CCC4)nn2)c1`, for which it took 25 µg/mL (≈ 58.9 µM) to inhibit growth (MIC).

For `CCCCCc1ccc(-c2cn(Cc3cc4c(nc3C)-c3ccccc3CCC4)nn2)cc1`, inhibition of growth (MIC) required 12.5 µg/mL (≈ 28.6 µM).

Turning to `Cc1cc2c(cc1C)-c1nc(C)c(Cn3cc(-c4ccccc4)nn3)cc1CCC2`, the MIC was 25 µg/mL (≈ 63.4 µM).

`COc1ccc2cc(-c3cn(Cc4cc5c(nc4C)-c4ccccc4CCC5)nn3)ccc2c1` returned an MIC of 25 µg/mL (≈ 56 µM).

Regarding `CCCCCCc1cn(Cc2cc3c(nc2C)-c2ccccc2CCC3)nn1`, the MIC worked out at 1.56 µg/mL (≈ 4.17 µM).

As to `Cc1nc2c(cc1Cn1cc(-c3ccccc3)nn1)CCCc1ccccc1-2`, the MIC came to 25 µg/mL (≈ 68.2 µM).

With `Cc1ccc(-c2cn(Cc3cc4c(nc3C)-c3cc(C)c(C)cc3CCC4)nn2)cc1`, it took 12.5 µg/mL (≈ 30.6 µM) to inhibit growth (MIC).

Regarding `Cc1nc2c(cc1Cn1cc(-c3cccnc3)nn1)CCCc1ccccc1-2`, the MIC turned out to be 6.25 µg/mL (≈ 17 µM).

The compound `Cc1cc2c(cc1C)-c1nc(C)c(Cn3cc(-c4ccccn4)nn3)cc1CCC2` showed an MIC of 25 µg/mL (≈ 63.2 µM).

`Cc1cc2c(cc1C)-c1nc(C)c(Cn3cc(-c4cc5ccccc5c5ccccc45)nn3)cc1CCC2` gave an MIC of 1.56 µg/mL (≈ 3.15 µM).

A further data set concerns HEK-293T. The data set is described as follows: Cytotoxicity against human HEK293T cells assessed as reduction in cell viability at 50 ug/ml after 24 hrs by MTT assay. Format: cell-based.
Settings: not given
As to `CCCCCCc1cn(Cc2cc3c(nc2C)-c2ccccc2CCC3)nn1`, the Activity entry is recorded as “Non-Toxic”.

Regarding `Cc1cc2c(cc1C)-c1nc(C)c(Cn3cc(-c4cc5ccccc5c5ccccc45)nn3)cc1CCC2`, the Activity entry was “Non-Toxic”.

The MIC is the lowest concentration that inhibits growth of the organism.
